We go through 6 molecules from US12152030B2 (NOVOSTAR PHARMACEUTICALS, LTD., priority 2019, dated 2024).

One data set deals with Phosphorylated eIF4E. Description: Intracellular peIF4E signaling assay. The following applies: 2 h; two hours incubation at 37° C.; read-out: peIF4E signaling cell assay IC50. In kind it is cell-based. The method, then: Phosphorylated eIF4E was determined using CisBio peIF4E assay kit (CisBio, catalog number 64EF4PEG). The cells were plated in a 96-well cell culture plate in a volume of 90 μL, and the number of cells per well was 5*10^4. The compounds (10×) were subjected to 3-fold serial dilution, added to the cell plate in a volume of 10 μL with the final DMSO concentration being 1%, and incubated at 37° C. for two hours. The cell plate was centrifuged at 300 g for 5 minutes, and the cell supernatant was carefully removed. The cell plate was immediately added with 50 μL of cell lysis buffer […] and incubated at 25° C. with shaking for at least 30 minutes. After homogenization by pipetting, 16 μL of cell lysate was transferred from the 96-well cell culture plate to a 384-well small-volume microwell plate. According to the kit instruction, an antibody mixture solution was prepared with a detection buffer, and was added in a volume of 4 μL to the 384-well small-volume microwell plate containing the cell lysate. The plate was covered with a plate sealer, incubated overnight at 25° C., and was read for fluorescence emission at two different wavelengths (665 nm and 615 nm) on the EnVision microplate reader counter. The emission ratio was imported into a GraphPadPrism software to fit the compound concentration (IC50) required for 50% inhibition of enzyme activity.
In this respect, IC50 values which are less than 0.05 μM were marked as “+++”, which are from 0.05 to 1.0 μM were marked as “++”, and which are greater than 1.0 and up to 100 μM were marked as “+”, and NA meant “not detected”.

Another data set concerns PD-1. Description: Expression of immune checkpoint PD-1 on cell surface of PHA-activated PBMC (flow cytometry). The class given is cell-based, human. As to conditions: 5 μg/ml PHA, 0.01-10 μM, 48 hours. On the procedure:
(§1) Gradient centrifugation was used to extract PBMC cells from peripheral blood of healthy people. The PBMC cells were activated with 5 μg/ml PHA (Sigma), and treated with different concentrations of compounds (0, 0.01, 0.1, 1, 3, 10 μM). After 48 hours, the cells and culture supernatants were collected, respectively. Flow cytometry was used to detect the expression of immune checkpoints, PD-1, Tim-3 and Lag-3 on cell surface, and to detect the secretion level of various cytokines (IL-6, IL-10 and TNF-α) in the cell culture supernatants.
In general terms: Flow cytometry measures light scatter and fluorescence of single cells or particles in a stream.

Another data set relates to Tim-3. Description: Expression of immune checkpoint Tim-3 on cell surface of PHA-activated PBMC (flow cytometry). The class given is cell-based, human. As to conditions: 5 μg/ml PHA, 0.01-10 μM, 48 hours. The method, then:
as §1

The test system of a further data set is Lag-3. Description: Expression of immune checkpoint Lag-3 on cell surface of PHA-activated PBMC (flow cytometry). In kind it is cell-based, human. The following applies: 5 μg/ml PHA, 0.01-10 μM, 48 hours. On the procedure:
as §1

Another data set relates to IL-10. Description: Secretion level of IL-10 in PHA-activated PBMC culture supernatants. In kind it is cell-based, human. As to conditions: 5 μg/ml PHA, 0.01-10 μM, 48 hours. On the procedure: as §1
Another data set relates to IL-6. Description: Secretion level of IL-6 in PHA-activated PBMC culture supernatants. The class given is cell-based, human. The following applies: 5 μg/ml PHA, 0.01-10 μM, 48 hours. On the procedure:
as §1

A further data set deals with TNF-α. Description: Secretion level of TNF-α in PHA-activated PBMC culture supernatants. In kind it is cell-based, human. As to conditions: 5 μg/ml PHA, 0.01-10 μM, 48 hours. On the procedure:
as §1

A short description of data set [1]: Pharmacokinetic study in rats. The class given is in vivo. The following applies: male, SD, plasma, rat. The method, then: In the examples, rat pharmacokinetic tests were performed for compounds 2 and 26 to illustrate their pharmacokinetic properties in rats.
Formulation of Liquors of Compound 2: […]
Experimental Method for Pharmacokinetic Study in Rats
(§2) Six SD rats, male, weighing 180-220 g, fasting for 12 hours, were randomly divided into 2 groups, 3 in each group. The animals in group A were intragastrically administrated with the compound liquor at a dose of 10 mg/kg; the animals in group B were intravenously administrated with the compound liquor via tails at a dose of 3 mg/kg. Blank blood was harvested before administration; about 100 μL of venous blood was harvested at different time points after administration, placed in a test tube added with heparin and centrifuged, and about 50 μL of blood plasma was collected and stored at −20° C. for testing.
Formulation of Liquors of Compound 26: […]
Formulation of solution for intravenous administration: compound 26 was dissolved in a solution of 5% DMSO+10% Solutol HS15+85% (20% HP-(3-CD physiological saline).
Formulation of suspension for intragastric administration: compound 26 was dissolved in a solution of 5% DMSO+10% Solutol HS15+85% (20% HP-(3-CD physiological saline).
Administration dosage of compound 26: 1 mg/kg for intravenous injection, 3 mg/kg for intragastric administration.
as §2, with “of 3” for “of 10”, “of 1” for “of 3”

In a further data set the target is MNK1 (Homo sapiens, UniProt Q9BUB5). Description: MNK biological enzyme assay (HTRF kinase assay), MNK1. In kind it is biochemical. Further details: purchased ThermoFisher PV6023. The following applies: 3 ng/ul MNK1, 1 μM STK1 peptide, 100 μM ATP. On the procedure:
(§3) A HTRF kinase assay kit (Cisbio, catalog number 62ST1PEB) was used to determine the MNK inhibitory activity of the compounds. All kinase reactions were performed in the reaction buffer (provided in the kit). The final MNK1 reaction involved 3 ng/ul recombinant MNK1 (ThermoFisher, PV6023), 1 μM MNK substrate peptide STK1 (provided in the kit), 100 μM ATP, and different concentrations of the inhibitory compounds of interest. The final MNK2 reaction involved 1 ng/μl recombinant MNK2 (ThermoFisher, PV5607), 1 μM MNK substrate peptide STK1 (provided in the kit), 100 μM ATP, and different concentrations of the inhibitory compounds of interest. The final DMSO concentration in each of the reactions was 1%.
(§4) The kinase reaction was performed in a final volume of 10 μl in a 384-well white flat-bottomed polystyrene plate. The MNK1/2 enzyme was pre-incubated with the compound and substrate peptide for 5 minutes, and then ATP was added thereto. After addition of ATP, the kinase reaction was incubated at 25° C. for 120 minutes or 60 minutes. The reaction was subsequently terminated by adding 5 μl of EU3+ substrate antibody detection reagent and 5 μl of XL665 detection reagent, and incubating for another 60 minutes. The luminescent signal was detected with an EnVision microplate reader counter (Perkin Elmer), and the signal from 10-point dilution series of the compounds was used to calculate the compound concentration (IC50) required to achieve 50% inhibition of enzyme activity.
(§5) In this respect, IC50 values which are less than 0.01 μM were marked as “+++”, which are from 0.01 to 0.1 μM were marked as “++”, and which are greater than 0.1 and up to 10.0 μM were marked as “+”, and NA meant “not detected”.
On the technique in general: Time-resolved FRET reads energy transfer from a long-lived donor to a nearby acceptor.

The target of the next data set is MNK2 (Homo sapiens, UniProt Q9HBH9). Description: MNK biological enzyme assay (HTRF kinase assay), MNK2. Also noted: purchased ThermoFisher PV5607. As to conditions: 1 ng/μl MNK2, 1 μM STK1 peptide, 100 μM ATP. The class given is biochemical. The method, then: as §3, §4, §5
Chain of MNK2 (Q9HBH9 whole entry): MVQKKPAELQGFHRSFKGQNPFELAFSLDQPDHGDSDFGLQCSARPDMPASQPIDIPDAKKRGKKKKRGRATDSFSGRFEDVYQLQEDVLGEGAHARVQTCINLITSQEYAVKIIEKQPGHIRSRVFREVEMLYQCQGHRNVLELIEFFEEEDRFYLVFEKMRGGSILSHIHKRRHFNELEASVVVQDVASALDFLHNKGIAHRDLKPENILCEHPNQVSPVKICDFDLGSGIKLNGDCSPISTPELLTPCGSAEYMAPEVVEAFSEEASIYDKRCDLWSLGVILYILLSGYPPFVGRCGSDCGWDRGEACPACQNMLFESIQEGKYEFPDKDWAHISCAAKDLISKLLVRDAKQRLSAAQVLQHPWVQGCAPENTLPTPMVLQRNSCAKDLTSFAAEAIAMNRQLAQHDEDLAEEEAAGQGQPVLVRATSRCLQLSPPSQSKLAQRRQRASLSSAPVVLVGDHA

Chain of MNK1 (Q9BUB5 whole entry): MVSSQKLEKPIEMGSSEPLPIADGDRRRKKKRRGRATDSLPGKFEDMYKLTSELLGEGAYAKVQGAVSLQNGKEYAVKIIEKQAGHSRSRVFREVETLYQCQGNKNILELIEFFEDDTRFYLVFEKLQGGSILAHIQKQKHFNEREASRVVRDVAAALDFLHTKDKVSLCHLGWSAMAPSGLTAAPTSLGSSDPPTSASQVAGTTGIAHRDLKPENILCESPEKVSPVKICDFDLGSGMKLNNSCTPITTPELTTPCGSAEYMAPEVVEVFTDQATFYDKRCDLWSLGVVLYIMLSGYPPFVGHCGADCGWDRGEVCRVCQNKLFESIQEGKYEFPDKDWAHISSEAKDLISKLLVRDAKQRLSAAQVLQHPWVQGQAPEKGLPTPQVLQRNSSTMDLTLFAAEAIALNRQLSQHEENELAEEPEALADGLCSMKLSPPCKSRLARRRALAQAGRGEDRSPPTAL

The IC50 is the concentration that inhibits the measured activity by half. As a reminder, the AUC(0-inf) is total exposure, with the tail of the curve extrapolated. Lower therefore signals low exposure. Usually AUC(0-t) stands for the area under the concentration-time curve up to a stated or last time point. High values mean high exposure, low ones low exposure. As a reminder, the clearance is a measure of how efficiently the substance is removed, as volume per time. Higher therefore signals efficient removal. For orientation: half-life means how long it takes for the measured level to halve. Read a low half-life as fast loss. In general, bioavailability refers to the share of a dose that reaches the circulation, judged against a reference dose that is usually intravenous. Lower therefore signals poor availability. As usually defined, the Cmax is the highest concentration seen after dosing. Broadly, the Tmax is the time from dosing to the highest level. Turning to `Cc1c2c(c(=O)n3c1C(=O)NC31CCCCC1)Nc1cc(NC(=O)C3CC3)ncc1C2` [Compound 26], the IC50 with Phosphorylated eIF4E was < 50 nM. Besides, in the data set with PD-1, the “inhibition of PD-1 expression” value is “significantly inhibited”. Also, the “inhibition of Tim-3 expression” value in the data set with Tim-3 is on record as “significantly inhibited”. In the data set on Lag-3, the “inhibition of Lag-3 expression” value is given as “significantly inhibited”. Besides, the “inhibition of secretion of IL-10” value with IL-10 is “significantly inhibited”. For the same molecule, the “inhibition of secretion of IL-6” value with IL-6 was “significantly inhibited”. The “inhibition of secretion of TNF-α” value with TNF-α is “significantly inhibited”. In data set [1] (iv, 1 mg/kg), this molecule had an area under the curve AUC(0-inf) of 632 ng·h/mL, an area under the curve AUC(0-t) of 619 ng·h/mL, a clearance of 27.2 mL/min/kg and a half-life of 3.73 h. Further, the Vd in data set [1] (iv, i.v., 1 mg/kg, read-out: Vz) stood at 4.14 L/kg. For the same molecule, the bioavailability in [1] (oral, p.o. 3 mg/kg vs i.v. 1 mg/kg) turned out to be 21.7%. In data set [1] (po, 3 mg/kg), the AUC(0-inf) is 391 ng·h/mL, the AUC(0-t) turned out to be 402 ng·h/mL, the Cmax was found to be 45.2 ng/mL and the Tmax came to 1.75 h. This molecule also gave a half-life in [1] (po, 3 mg/kg) of 6.97 h. The half-inhibitory concentration (IC50) against MNK1 is < 10 nM. Further, the concentration for half-maximal inhibition (IC50) at MNK2 is < 10 nM.

Take `Cc1c2c(c(=O)n3c1C(=O)NC31CCCCC1)Nc1cc(NC(=O)OC(C)(C)C)ncc1C2` [Compound 23, Tert-Butyl (12-methyl-1,5-dioxo-1,5,6,11-tetrahydro-2H-spiro[cyclohexane-1,3-imidazole[1,5:1,6]pyrido[3,4b][1,6]naphthalene]-8-yl)aminoformate]: the IC50 in the data set with Phosphorylated eIF4E is < 50 nM; on MNK1 it was < 10 nM; on MNK2 it was < 10 nM.

As to `Cc1c2n(c(=O)c3[nH]c4cc(N)ncc4c(=O)c13)C(C)(C)NC2=O` [Compound 3], the values for the IC50 in the data set on Phosphorylated eIF4E, against MNK1 and against MNK2 were 50 to 1000 nM, 10 to 100 nM and 10 to 100 nM, respectively.

Regarding `CC(=O)Nc1cc2c(cn1)Cc1c(C)c3n(c(=O)c1N2)C1(CCCCC1)NC3=O` [Compound 21, 12(N-methyl-1,5-2,5,6,11-tetrahydro-1H-spiro[cyclohexane-1-imidazo[1,5-6]pyrido[3,4-b]naphthyridine1.6][8]′-yl)acetamide], the “inhibition of PD-1 expression” value with PD-1 was “significantly inhibited”. Moreover, in the data set with Tim-3, the “inhibition of Tim-3 expression” value was “significantly inhibited”. In addition, the “inhibition of Lag-3 expression” value with Lag-3 was “significantly inhibited”. Besides, the “inhibition of secretion of IL-10” value in the data set with IL-10 is “significantly inhibited”. In the data set with IL-6, the “inhibition of secretion of IL-6” value is recorded as “significantly inhibited”. In the data set on TNF-α, the “inhibition of secretion of TNF-α” value is on record as “significantly inhibited”. Besides, the IC50 against MNK1 and on MNK2 was < 10 nM in each case.

On to `Cc1c2n(c(=O)c3[nH]c4cc(N)ncc4c(=O)c13)C(C)(c1cccc(Cl)c1)NC2=O` (stereo not shown) [Compound 13, 8-amino-3-(3-chlorophenyl)-3,12-dimethyl-2,3-dihydroimidazole[1′,5′:1,6]pyrido[3,4-b][1,6]naphthopyridin-1,5,11(6H)-trione], for which the IC50 in the data set on Phosphorylated eIF4E was in the range of 50 to 1000 nM; at MNK1 it was 10 to 100 nM; against MNK2, 10 to 100 nM.

On to `CCC(=O)Nc1cc2c(cn1)Cc1c(C)c3n(c(=O)c1N2)C1(CCCCC1)NC3=O` [Compound 25], for which the IC50 is < 50 nM in the data set with Phosphorylated eIF4E, 10 to 100 nM at MNK1 and < 10 nM at MNK2.
